Test results reported in US20230381163A1, “DABIGATRAN COMPOSITIONS AND METHODS OF TREATING AGE-RELATED MACULAR DEGENERATION” (The United States Government As Represented By The …, priority 2022, published 2023).

What was measured:
[1] = dabigatran chow, ˜10 mg/kg bodyweight per day; cited from earlier work
[2] = test system: VEGF; experiment: VEGF levels in RPE/choroid of CNV mice (western blot); format: in vivo, mouse
Source text: Pathway analysis in CNV. Based on the results in cells, an analysis in animals followed, focusing on VEGF levels in the RPE/choroid, complemented by CTGF analysis and complement activation (C3d production and binding). RPE/choroid samples were collected at the end of the angiogenesis experiment (day 6) and after the final OCT analysis in the repair experiment (day 23) and compared to naive controls (no CNV and no dabigatran treatment).

[3] = target: thrombin (Homo sapiens, UniProt P00734); experiment: Thrombin activity in cell-free system; settings: 10 μM, thrombin 10-500 U/mL
Experimental: Thrombin activity in cell-free system. To measure the level of active thrombin in cell-free system, known concentrations of thrombin were prepared in 100 μl of assay buffer (50 mM Tris, 100 mM NaCl, and 0.01% BSA; pH 7.5), subsequently 50 μl of thrombin substrate was added and incubated at 37° C. Fluorescence was measured at 405 nm using the Biotek Synergy HT Microplate Reader and thrombin activity was determined by extrapolation from a thrombin standard curve. Effects of inhibitors were tested by pre-incubating the inhibitors with thrombin, before substrate incorporation.

[4] = test system: AMD diagnosis in Medicare patients; experiment: MarketScan retrospective analysis of AMD diagnosis in dabigatran-exposed vs matched control Medicare patients; format: in vivo, human
Source text: Material and methods. MarketScan analysis: Population. A total of 41,860 dabigatran-exposed and 41,860 non-exposed controls, for a total of 83,720 Medicare patients were extracted from MarketScan® data from 2010-2015 and used in the analysis. Patients with an inpatient or outpatient record with a diagnosis of AMD (wet or dry) for the baseline period were excluded from inclusion in the data set. Patients who filled at least one prescription of dabigatran during the 2011-2012 exposure period were included in the dabigatran group. The date of the first filled prescription was designated as the Index Date. […] The first patient record date in randomly selected records from 2011 or 2012 was chosen as the Index Date for control group patients. Patients with <90 days of insurance coverage in the baseline period or <120 days of coverage in the study (exposure) period were excluded from the final cohort. The exposed and control patients were matched by age, sex, state of residence, Index Date, days in baseline period, and days in study period using 1:1 propensity score mating with a greedy algorithm and a caliper distance of 0.2.
Survival and Statistical Analysis. Survival analysis was used (Schnabolk et al., 2019) to show differences in time until AMD diagnosis among dabigatran users and control subjects using the […] procedure. AMD diagnoses were identified using ICD-9 codes 362.5 (unspecified macular degeneration), 362.51 (dry AMD), and 362.52 (wet AMD). A period of ˜5 years (from Jul. 1, 2010, to Dec. 31, 2015) was used for this analysis, and preexisting AMD diagnosis was ruled out by requiring that the subjects be AMD free over the first ˜600 days (designated as baseline days or Base Days). Data on the matched control and dabigatran population were analyzed using multivariable logistic and Cox regression. Specifically, the odds of being diagnosed with AMD during the follow-up time, controlling for days of dabigatran exposure, and the proportional hazard rates of obtaining an AMD diagnosis in the dabigatran or control population as well as any baseline differences in demographics or comorbidities was compared (Charlson or Elixhouser diagnoses).
Results. Association between Dabigatran Use and AMD Risk. The patient population consisted of 83,720 Medicare patients extracted from MarketScan® data from 2010-2015 as described herein, with 41,860 dabigatran-exposed and 41,860 non-exposed controls. The controls were matched on 33 baseline variables, including demographics and clinical characteristics (Schnabolk, G., et al. (2019). Invest Ophthalmol Vis Sci 60, 3520-3526) (Table 1).

[5] = test system: CTGF expression in ARPE-19 cells; experiment: Thrombin-induced CTGF expression in ARPE-19 cell lysates (western blot); settings: dabigatran 10 μM, thrombin 1 U/mL
Experimental: Cell culture experiments: Cells. Human ARPE-19 (ATCC® CRL-2302™; American Type Culture Collection, Manassas VA) cells were cultured in DMEM cell culture media (Gibco/ThermoFisher Scientific) containing high glucose DMEM with D-glucose (4.5 g/L), L-glutamine, sodium pyruvate (110 mg/L), Penicillin and Streptomycin (1×) and 10% of FBS. Cells (<passage 10 after purchase) were expanded in T75 cell culture flasks at 37° C., in the presence of 5% CO2. Confluent cells were trypsinized with 0.05% trypsin (Gibco), and equal numbers of cells were seeded on 6-well transwell filters/plate (Costar). […] Integrity of the cell monolayer was assessed by Transepithelial resistance (TER) measurements using an EVOM volt-ohmmeter (World Precision Instruments) four weeks after plating. RPE monolayers with a stable TER repeatedly measured as ˜40-45 S2 cm 2 were used for these experiments.
Treatments. Prior to each experiment, the cell monolayer was washed with serum-free medium (SFM) and maintained in SFM for 24 hours. […] Treatments were performed on the apical side of the transwell membrane, which represents the retinal side of the RPE in vivo. Some of the cells were treated with thrombin (EMD Millipore Corp), complement components C3a, C5a (Complement Technology), thrombin agonist PAR1-AP (Sigma-Aldrich; amino acid sequence SFLLRN (SEQ ID NO: 1)), thrombin inhibitor dabigatran etexilate (Sigma-Aldrich), C3 inhibitor compstatin (R&D Systems), AP inhibitor TT30 (Alexion Therapeutics), a protease inhibitor alpha1-antitrypsin (Sigma-Aldrich), and the thrombin receptor proteinase activated receptor 1 inhibitor SCH 79797 (Sigma-Aldrich). Treatments were performed 60 min prior to the addition of thrombin. Cell culture supernatant and lysate were collected after specific time points or after 24 hrs of treatment and stored at −20° C. for later use.
Western blotting. […] Cell lysates were collected in RIPA cell lysis buffer containing 150 mM NaCl, 1.0% IGEPAL® CA-630, 0.5% sodium deoxycholate, 0.1% SDS, 50 mM Tris (pH 8.0) (Sigma-Aldrich) in presence of 1×protease inhibitor (Sigma-Aldrich). Equal amount of each samples were loaded on 4-20% Criterion™ TGX™ precast gels (Bio-Rad Laboratories, Inc.) (Annamalai, B., et al. (2020). Invest Ophthalmol Vis Sci 61, 45). Proteins were transferred to a nitrocellulose membrane and incubated in primary antibody followed by appropriate secondary antibodies coupled to peroxidase, followed by band development and detection using Clarity™ Western ECL blotting substrate (Bio-Rad Laboratories, Inc.) and chemiluminescent detection. Protein bands were scanned and densities quantified using ImageJ software. The following antibodies were used: C3a (1:1000; Complement Technology), C5a (1:1000; Abcam), connective tissue growth factor/CTGF (1:1000; Abcam), C3d anti-C3d (clone 11, 1:1000; generation of the antibody is described in (Thurman, J. M., et al. (2013). J Clin Invest 123, 2218-2230)), VEGF (1:1000, Santa Cruz Biotechnology, Inc.), β-actin (1:2000; Cell Signaling Technology) and concentrations selected based on the data sheet recommendations.
ARPE-19 cell monolayers were treated with thrombin (0.5-10 U/ml) and cell lysates were collected and analyzed for CTGF levels at 4 hrs post treatment by western blotting.

[6] = 1-2 years exposure to dabigatran
[7] = 2+ years exposure to dabigatran

## CCCCCCOC(=O)NC(=N)c1ccc(NCc2nc3cc(C(=O)N(CCC(=O)OCC)c4ccccn4)ccc3n2C)cc1
[1]
  blood plasma concentration of dabigatran: 372 ± 30 ng/mL
  elongation of coagulation times: 3 fold
[2]; 6-day time point, angiogenesis phase, P=0.9
  effect on VEGF levels in RPE/choroid: no effect
[2]; 23-day time point, repair phase, P=0.001
  effect on VEGF levels in RPE/choroid: significantly reduced
[3]
  effect on thrombin enzyme activity: significantly reduce
[4]; [6]
  % AMD per study year: 3.25%
  % patients with a wet AMD diagnosis: 0.90%
  % patients with an AMD diagnosis: 10.11%
  % wet AMD per study year: 0.26%
[4]; 1-2 years of dabigatran
  risk of AMD by exposure strata (odds ratio vs controls): 0.64
[4]; [7]
  % AMD per study year: 3.00%
  % patients with a wet AMD diagnosis: 1.35%
  % patients with an AMD diagnosis: 12.26%
  % wet AMD per study year: 0.29%
[4]; 2+ years of dabigatran
  risk of AMD by exposure strata (odds ratio vs controls): 0.64
[4]; <1 year exposure to dabigatran
  % AMD per study year: 3.04%
  % patients with a wet AMD diagnosis: 0.75%
  % patients with an AMD diagnosis: 7.51%
  % wet AMD per study year: 0.28%
[4]; <1 year of dabigatran
  risk of AMD by exposure strata (odds ratio vs controls): 0.52
[4]; all dabigatran users
  % AMD per study year: 3.07%
  % patients with a wet AMD diagnosis: 0.91%
  % patients with an AMD diagnosis: 9.1%
  % wet AMD per study year: 0.28%
[4]; all dabigatran users, listed as Dabigatran
  % patients with an AMD diagnosis: 9.10%
[4]; dabigatran vs control group
  reduction of percent AMD per study year: ~35%
  reduction of percent patients with a wet AMD diagnosis: ~60%
[4]; dabigatran vs matched controls, P<0.0001
  hazard ratio, time to first recorded diagnosis of unspecified AMD: 0.63
[4]; dabigatran-exposed subjects, n 3810
  Days to AMD, Mean: 562 days
[4]; dabigatran-exposed subjects, n 38399
  Wet Days, Mean: 1047 days
[4]; dabigatran-exposed subjects, n 41511
  Dry Days, Mean: 1011 days
[4]; dabigatran-exposed subjects, n 41860
  AMD Days, Mean: 1007 days
[4]; multivariable logistic regression controlling for age, sex, days in study, CI 0.55-0.61
  odds ratio (OR) of AMD: 0.58
[5]
  reduction of thrombin-induced CTGF expression: 3.2 fold
